We go through 16 molecules from US9771337B2, “Neprilysin inhibitors” (THERAVANCE BIOPHARMA R&D IP, LLC, priority 2011, dated 2017).

What is called Ki is the equilibrium dissociation constant of an inhibitor or competing ligand from its target.

The target of the assay is T1, human NEP (Homo sapiens, UniProt P08473).
T1 construct: purchased R&D Systems, Minneapolis, Minn; 1182-ZN
T1 sequence (P08473 whole entry): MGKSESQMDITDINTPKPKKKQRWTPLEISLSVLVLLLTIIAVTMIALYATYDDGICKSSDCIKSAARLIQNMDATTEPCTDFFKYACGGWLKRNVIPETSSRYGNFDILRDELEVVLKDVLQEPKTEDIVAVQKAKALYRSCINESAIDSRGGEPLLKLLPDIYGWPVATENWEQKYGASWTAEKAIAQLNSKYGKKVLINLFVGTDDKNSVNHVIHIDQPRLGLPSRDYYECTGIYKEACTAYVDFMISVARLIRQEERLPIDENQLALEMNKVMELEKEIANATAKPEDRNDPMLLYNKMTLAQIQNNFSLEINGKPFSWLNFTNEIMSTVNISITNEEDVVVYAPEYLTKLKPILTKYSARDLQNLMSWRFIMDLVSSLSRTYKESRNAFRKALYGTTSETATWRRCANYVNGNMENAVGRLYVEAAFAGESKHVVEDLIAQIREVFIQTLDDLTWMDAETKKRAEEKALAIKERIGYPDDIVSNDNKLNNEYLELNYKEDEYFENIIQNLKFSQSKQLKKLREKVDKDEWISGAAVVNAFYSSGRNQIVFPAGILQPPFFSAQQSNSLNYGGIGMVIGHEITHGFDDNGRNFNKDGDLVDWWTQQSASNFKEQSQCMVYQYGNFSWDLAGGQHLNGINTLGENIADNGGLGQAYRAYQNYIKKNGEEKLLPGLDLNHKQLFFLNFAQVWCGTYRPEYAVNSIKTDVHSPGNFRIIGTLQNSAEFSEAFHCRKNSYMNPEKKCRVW
In words: In vitro enzyme inhibition assay, inhibitor potency at human NEP. Type of assay: biochemical. The conditions noted are these: pKi values at human NEP; recombinant human NEP, fluorogenic peptide substrate 10 μM, 37° C. Here is the method:
The inhibitory activities of compounds at human and rat neprilysin (EC 3.4.24.11; NEP) and human angiotensin converting enzyme (ACE) were determined using in vitro assays as described below.
Recombinant human NEP and recombinant human ACE were obtained commercially (R&D Systems, Minneapolis, Minn., catalog numbers 1182-ZN and 929-ZN, respectively). The fluorogenic peptide substrate Mca-D-Arg-Arg-Leu-Dap-(Dnp)-OH (Medeiros et al. (1997) Braz. J. Med. Biol. Res. 30:1157-62; Anaspec, San Jose, Calif.) and Abz-Phe-Arg-Lys(Dnp)-Pro-OH (Araujo et al. (2000) Biochemistry 39:8519-8525; Bachem, Torrance, Calif.) were used in the NEP and ACE assays respectively.
The assays were performed in 384-well white opaque plates at 37° C. using the fluorogenic peptide substrates at a concentration of 10 μM in Assay Buffer (NEP: 50 mM HEPES, pH 7.5, 100 mM NaCl, 0.01% polyethylene glycol sorbitan monolaurate (Tween-20), 10 μM ZnSO4; ACE: 50 mM HEPES, pH 7.5, 100 mM NaCl, 0.01% Tween-20, 1 μM ZnSO4).
Test compounds were assayed over the range of concentrations from […] to 20 μM. Test compounds were added to the enzymes and incubated for 30 minute at 37° C. prior to initiating the reaction by the addition of substrate. Reactions were terminated after 20 minutes of incubation at 37° C. by the addition of glacial acetic acid to a final concentration of 3.6% (v/v).
Plates were read on a fluorometer with excitation and emission wavelengths set to 320 nm and 405 nm, respectively. Inhibition constants were obtained by nonlinear regression of the data using the equation (GraphPad Software, Inc., San Diego, Calif.): v=v0/[1+(I/K′)] where v is the reaction rate, v0 is the uninhibited reaction rate, I is the inhibitor concentration and K′ is the apparent inhibition constant.
Compounds of the invention were tested in this assay and found to have pKi values at human NEP as follows.
As for `O=C(N[C@H](Cc1ccccc1)[C@@H](O)C(=O)O)c1ccnc(-c2ccccc2C(=O)O)c1` [Example 5-22, 2-[4-((1R,2R)-1-Benzyl-2-carboxy-2-hydroxy-ethylcarbamoyl)-pyridin-2-yl]-benzoic acid], the Ki is 0.00126 to 0.01 µM.

With `O=C(N[C@H](Cc1ccccc1)[C@@H](O)C(=O)O)c1ccc(-c2ccccc2C(=O)O)cn1` [Example 5-24, 2-[6-((1R,2R)-1-Benzyl-2-carboxy-2-hydroxy-ethylcarbamoyl)-pyridin-3-yl]-benzoic acid], the Ki was 0.0126 to 0.1 µM. The value for `O=C(N[C@H](Cc1ccccc1)[C@@H](O)C(=O)O)c1cncc(-c2ccccc2C(=O)O)c1` [Example 5-25, 2-[5-((1R,2R)-1-Benzyl-2-carboxy-2-hydroxy-ethylcarbamoyl)-pyridin-3-yl]-benzoic acid] was 0.00126 to 0.01 µM; that for `O=C(N[C@H](Cc1ccccc1)[C@@H](O)C(=O)O)c1cc(-c2ccccc2C(=O)O)ccn1` [Example 5-26, 2-[2-((1R,2R)-1-Benzyl-2-carboxy-2-hydroxy-ethylcarbamoyl)-pyridin-4-yl]-benzoic acid] was 0.00126 to 0.01 µM; that for `O=C(N[C@H](Cc1ccccc1)[C@@H](O)C(=O)O)c1cnc2nn[nH]c2c1` [Example 5-29, (2R,3R)-2-Hydroxy-4-phenyl-3-[(1H-[1,2,3]triazolo[4,5-b]pyridine-6-carbonyl)-amino]-butyric acid] was 0.0126 to 0.1 µM. As to `O=C(N[C@H](Cc1ccccc1)[C@@H](O)C(=O)O)c1cc2cccn2cn1` [Example 5-30, (2R,3R)-2-Hydroxy-4-phenyl-3-[(pyrrolo[1,2-c]pyrimidine-3-carbonyl)-amino]-butyric acid], the Ki was 0.0126 to 0.1 µM. In the case of `O=C(O)c1ccc(C(=O)N[C@H](Cc2ccccc2)[C@@H](O)C(=O)O)s1` [Example 5-31, 5-((1R,2R)-1-Benzyl-2-carboxy-2-hydroxy-ethylcarbamoyl)-thiophene-2-carboxylic acid] it was 0.00126 to 0.01 µM. In the case of `O=C(O)C[C@@H](Cc1ccccc1Cl)NC(=O)c1cc(-c2ccccc2C(=O)O)ccn1` [Example 6, 2-{2-[(R)-1-Carboxymethyl-2-(2-chloro-phenyl)-ethylcarbamoyl]-pyridin-4-yl}-benzoic Acid] it was 0.00126 to 0.01 µM; in that of `O=C(O)C[C@@H](Cc1ccccc1Cl)NC(=O)c1cnn[nH]1` [Example 7-1, (R)-4-(2-Chloro-phenyl)-3-[(3H-[1,2,3]triazole-4-carbonyl)-amino]-butyric acid], 0.0126 to 0.1 µM; in that of `Cc1cc(C(=O)N[C@@H](CC(=O)O)Cc2ccccc2Cl)cc2[nH]nnc12` [Example 7-2, (R)-4-(2-Chloro-phenyl)-3-[(7-methyl-3H-benzotriazole-5-carbonyl)-amino]-butyric acid], 0.0126 to 0.1 µM.

For `O=C(O)C[C@@H](Cc1ccccc1Cl)NC(=O)c1ccc2nn[nH]c2c1` [Example 7-3, (R)-3-[(3H-Benzotriazole-5-carbonyl)-amino]-4-(2-chloro-phenyl)-butyric acid], the Ki is 0.0126 to 0.1 µM. Consider `O=C(O)C[C@@H](Cc1ccccc1Cl)NC(=O)c1cc(Cl)c2nn[nH]c2c1` [Example 7-4, (R)-3-[(7-Chloro-3H-benzotriazole-5-carbonyl)-amino]-4-(2-chloro-phenyl)-butyric acid], for which the Ki was 0.0126 to 0.1 µM. With `O=C(O)C[C@@H](Cc1ccccc1Cl)NC(=O)c1cc(F)c2[nH]nnc2c1` [Example 7-6, (R)-4-(2-Chloro-phenyl)-3-[(7-fluoro-1H-benzotriazole-5-carbonyl)-amino]-butyric acid], the Ki is 0.0126 to 0.1 µM. In the case of `O=C(O)C[C@@H](Cc1ccccc1Cl)NC(=O)c1cnc2nn[nH]c2c1` [Example 7-7, (R)-4-(2-Chloro-phenyl)-3-[(1H-[1,2,3]triazolo[4,5-b]pyridine-6-carbonyl)-amino]-butyric acid] it was 0.0126 to 0.1 µM; in that of `O=C(O)C[C@@H](Cc1ccccc1Cl)NC(=O)c1cnc(O)nc1` [Example 7-8, (R)-4-(2-Chloro-phenyl)-3-[(2-hydroxy-pyrimidine-5-carbonyl)-amino]-butyric acid], 0.00126 to 0.01 µM; in that of `O=C(O)C[C@@H](Cc1ccccc1Cl)NC(=O)c1ccc(-c2ccccc2C(=O)O)nn1` [Example 7-9, 2-{6-[(R)-2-Carboxy-1-(2-chloro-benzyl)-ethylcarbamoyl]-pyridazin-3-yl}-benzoic acid], 0.0126 to 0.1 µM.
